Assay results: patent US20190365784A1, “USE OF BRASSINOSTEROID ANALOGS FOR THE TREATMENT OF DERMAL DISORDERS BY SELECTIVELY MODULATING LIVER X RECEPTORS (LXR) AND DERMAL DISEASE TREATMENT BY BRASSINOSTEROID ANALOGS ACTING AS SELECTIVE LIVER X RECEPTOR (LXR) MODULATORS” (CONSEJO NACIONAL DE INVESTIGACIONES CIENTÍFICAS Y TÉCNICAS …, priority 2015, published 2019)

Assays:
ABCG1 = ABCG1 expression in HepG2 cells (real time PCR); type: cell-based, human; conditions: 10 uM, 6 h
Protocol: The cells were incubated for 6 h in the presence of either Compound I (10 uM), or Compound II (10 uM), or the commercial LXR agonist GW3965 (1 uM), or Vehicle [DMSO, 0.1% (v/v)]). To obtain RNA, at the end of the incubation the cells were collected by centrifugation at 1,000 rpm for 2 min, washed with phosphate buffered saline, and lysed in 300 ul TRIZOL (Invitrogen). RNA samples were suspended in ul of RNAse free water, and their concentration determined (NanoDrop spectrophotometer). The ratio of the absorbance at 260 and 280 nm was used to assess RNA purity of an RNA preparation, with a value of 1.8-2.0 indicating pure RNA. To obtain cDNA, 1 ug of total RNA was denatured by incubating for 5 min at 70° C., before the addition of a mixture containing 0.5 ug oligo-dT primers and 25 ng/ml of random primers (Invitrogen), 1.0 mM dNTPs (Invitrogen), and 200 U M-MLV reverse transcriptase (Promega); after this the mixture was retrotranscribed at 37° C. for 60 min, followed by an incubation at 95° C. for 5 min to inactivate the enzyme. For the real time PCR amplification (Stratagene Thermal Cycler), cDNA samples were diluted 1/5 to 1/10 depending on the target amplification product. Calibration curves were obtained by use of eight successive 1:2 sample dilutions. Amplifications were carried out in a 25 ul final volume (5 ul cDNA sample plus 20 ul of reaction mixture) in the presence of either 3, 4 or 5 mM MgCl2 (depending on the amplified sequence), 0.25 mM dNTPs (Invitrogen), 1.25 U Taq polymerase (Invitrogen), 1 μM of the specific primers according to the target amplification sequence, and 0.025 μl SYBR Green (Roche). Melting curves were used to assess the specificity of the amplification products. […]

LXR-alpha [1] = biological target: T1, LXR-alpha (Homo sapiens, UniProt Q13133); test: LXR-alpha/RXR LRE-luciferase reporter in transfected BHK cells; type: cell-based; parameters: expressed in transfected cells; host or cells: BHK (baby hamster kidney cells), transient transfection as for HEK293T; conditions: for stimulation of LXR-alpha-driven gene transcription [(LXRE)-luciferase activity] / effect on LXR-alpha-driven expression of luciferase: 1 uM; for stimulation of LXR-alpha-driven gene transcription [(LXRE)-luciferase activity]: 3 uM and 10 uM; for effect on LXR-alpha-driven expression of luciferase / LXR-alpha-driven luciferase expression, increase compared with vehicle-treated cells: 18 h
T1 sequence (Q13133 1-447): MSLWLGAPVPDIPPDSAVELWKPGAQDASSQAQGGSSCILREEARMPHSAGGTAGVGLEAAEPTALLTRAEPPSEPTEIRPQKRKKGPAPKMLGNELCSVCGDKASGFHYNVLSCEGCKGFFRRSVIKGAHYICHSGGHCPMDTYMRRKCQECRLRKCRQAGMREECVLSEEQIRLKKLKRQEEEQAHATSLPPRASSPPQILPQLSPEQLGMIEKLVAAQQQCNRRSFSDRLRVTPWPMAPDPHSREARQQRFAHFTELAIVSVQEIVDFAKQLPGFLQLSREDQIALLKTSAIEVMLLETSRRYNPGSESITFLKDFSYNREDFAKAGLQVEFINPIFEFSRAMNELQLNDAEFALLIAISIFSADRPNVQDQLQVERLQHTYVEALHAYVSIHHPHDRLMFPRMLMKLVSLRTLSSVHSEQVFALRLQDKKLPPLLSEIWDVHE
T1 sequence (P19793 1-462 partner): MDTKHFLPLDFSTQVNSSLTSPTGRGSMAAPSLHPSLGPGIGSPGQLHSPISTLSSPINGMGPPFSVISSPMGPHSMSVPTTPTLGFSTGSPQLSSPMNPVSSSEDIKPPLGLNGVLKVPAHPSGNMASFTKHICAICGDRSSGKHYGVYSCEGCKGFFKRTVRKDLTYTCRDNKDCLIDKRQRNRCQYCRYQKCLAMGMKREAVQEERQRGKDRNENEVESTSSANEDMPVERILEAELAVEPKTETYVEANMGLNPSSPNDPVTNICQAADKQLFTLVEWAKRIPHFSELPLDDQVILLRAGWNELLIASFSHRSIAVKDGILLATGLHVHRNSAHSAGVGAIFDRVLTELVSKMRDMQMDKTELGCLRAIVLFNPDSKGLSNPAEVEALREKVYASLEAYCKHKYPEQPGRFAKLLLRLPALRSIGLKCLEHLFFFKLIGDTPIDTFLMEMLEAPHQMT
Protocol: B. Baby hamster kidney cells (5×10^5 cells/well) were cultured and transiently transfected as described above (Methods A.) for HEK293T cells. After transfection, the culture medium was replaced by serum-free DMEM, and the cells were incubated for 18 h with either Compound I or Compound II at 1×10^−6 M, 3×10^−6 M or 10^−5 M each, or vehicle [DMSO, 0.1% (v/v) final concentration], or GW3965 at a concentration of 10^−6 M. LXR-alpha activation was determined as described in A.

LXR-alpha [2] = test: LXR-alpha expression in UV-irradiated HaCaT cells (real time PCR); type: cell-based, human; conditions: 10 uM, 24 h after UV, vs. DMSO (UV, 24 h) and GW3965 (UV, 24 h)
Protocol: HaCaT cells—a human immortalized keratinocyte cell line—were exposed to 15 J/m^2 UVB (254 nm) irradiation. Twenty four hours after irradiation, the cells were harvested and RNA isolated to assess the expression of LXR-alpha, LXR-beta, ABCA1, TNF-alpha, IL-6, and IL-8 genes. HaCaT cells were cultured in DMEM supplemented with 10% (v/v) fetal bovine serum, penicillin (100 U/mL), streptomycin ([…]) and glutamine (2 mM). […] The expressions of ABCA1, TNF-alpha, IL-6, IL-8, LXR-alpha, and LXR-beta were normalized according to glyceraldehyde-3-phosphate dehydrogenase (GAPDH) expression. The results of three independent assays, carried out in duplicate for each condition, are reported.

LXR-alpha [3] = biological target: T1, LXR-alpha; test: LXR-alpha/RXR LRE-luciferase reporter in transfected HEK293T cells; type: cell-based; conditions: 10 uM, 18 h
Description: Since we had previously shown that the beneficial effects of the compounds of the invention are independent of glucocorticoid receptor (GR) activation, we set forth to investigate if they might exert their actions through activation of liver X receptors (LXR). For this purpose we used cultured cells transiently transfected with LXR-alpha, the retinoid X receptor (RXR) and a LXR response element-luciferase reporter (LRE-LUC). A. Human embryonic kidney cells (HEK293T; 5×10^5 cells/well) were cultured in DMEM medium supplemented with 10% (v/v) fetal bovine serum, 100 ug/ml of streptomycin, 100 IU/ml of penicillin and 2 mM glutamine. For the transient transfections, the cell cultures were added with plasmids carrying LXR-alpha (pLXR-alpha; 0.6 ug), the retinoid X receptor (pRXR; 0.2 ug), a LXR response element-luciferase reporter (pRE-LUC; 0.7 ug) and beta-galactosidase gene (pRSV-LacZ; 0.6 ug) as a transfection control, using Lipofectamine 2000 (Invitrogen). […] Compounds III to VI are […] analogs bearing a fluorine atom at C-6. To assess LXR-alpha activation, at the end of the incubation period luciferase activity was measured by use of a luciferase assay system (Promega). The results of three independent assays, carried out in duplicate for each condition, are reported.

| Compound | induction of ABCG1 expression (ABCG1) [times] | stimulation of LXR-alpha-driven gene transcription [(LXRE)-luciferase activity] (LXR-alpha [1]) | effect on LXR-alpha-driven expression of luciferase (LXR-alpha [1]) | LXR-alpha-driven luciferase expression, increase compared with vehicle-treated cells (LXR-alpha [1]; 3 uM) [fold] | LXR-alpha expression (LXR-alpha [2]) | induction of LXR-alpha driven gene expression compared with GW3965 (1 uM) (LXR-alpha [3]) | LXR-alpha-driven luciferase expression, increase compared with vehicle-treated cells (LXR-alpha [1]; 10 uM) [fold] |
| --- | --- | --- | --- | --- | --- | --- | --- |
| CC[C@@H](C(C)C)[C@H](O)[C@@H](O)[C@@H](C)[C@H]1CC[C@H]2[C@@H]3CCC4=CC(=O)CC[C@]4(C)[C@H]3CC[C@]12C [Compound I, (22S,23S)-22,23-dihydroxystigmast-4-en-3-one] | 8 | within the same concentration range as GW3965 | no effect | 3 | stimulated LXR-alpha expression even further | within the same range as that observed for GW3965 | – |
| CC[C@@H](C(C)C)[C@H](O)[C@@H](O)[C@@H](C)[C@H]1CC[C@H]2[C@@H]3CCC4=CC(=O)C=C[C@]4(C)[C@H]3CC[C@]12C [Compound II, (22S,23S)-22,23-dihydroxystigmasta-1,4-dien-3-one] | 3 | within the same concentration range as GW3965 | no effect | 3 | stimulated LXR-alpha expression even further | within the same range as that observed for GW3965 | 3 |
